Earlier results on one compound are cited in patent publication US11089780B2, “Pendimethanlin microcapsules with a shell made of tetramethylxylylene diisocyanate and a polyamine with at least three amine groups” (BASF SE, priority 2015, dated 2021).

The conditions of this series: at 25° C.

`CCC(CC)Nc1c([N+](=O)[O-])cc(C)c(C)c1[N+](=O)[O-]` [Pendimethalin, 3,4-dimethyl-2,6-dinitro-N-pentan-3-yl-aniline]: the Vapor pressure result is reported as “about 2 mPa”.
